Source: publication PMC4929166, “Pharmacological evaluation of synthetic cannabinoids identified as constituents of spice” (Forensic Toxicology, 2016)
Read-outs that look alike come from different tables or passages of the source.

Key:
[1] = target: T1, human GPR55 (Homo sapiens, UniProt Q9Y2T6); test: β-Arrestin recruitment assay (PathHunter) at GPR55; format: cell-based; conditions: for Human GPR55 % activation / Human GPR55 % inhibition: β-arrestin assay; for Human GPR55 % activation: percent in brackets beside EC50 >10 µM; for Human GPR55 % inhibition: percent in brackets beside IC50
T1 construct: β-galactosidase enzyme fragment (PathHunter complementation tag)
Experimental: (§1) Recruitment of β-arrestin to the respective receptor was detected by using β-galactosidase enzyme fragment complementation technology (β-arrestin PathHunter™ assay, DiscoverX, Fremont, CA, USA) as previously described. Data were obtained from three independent experiments, performed in duplicates. Data were analyzed using Graph Pad Prism Version 4.02 (San Diego, CA, USA).

[2] = target: T2, human GPR18 (Homo sapiens, UniProt Q14330); test: β-Arrestin recruitment assay (PathHunter) at GPR18; format: cell-based; conditions: for Human GPR18 % activation / Human GPR18 % inhibition: β-arrestin assay; for Human GPR18 % activation: percent in brackets beside EC50 >10 µM; for Human GPR18 % inhibition: percent in brackets beside IC50
T2 construct: β-galactosidase enzyme fragment (PathHunter complementation tag)
T2 sequence (Q14330 1-331): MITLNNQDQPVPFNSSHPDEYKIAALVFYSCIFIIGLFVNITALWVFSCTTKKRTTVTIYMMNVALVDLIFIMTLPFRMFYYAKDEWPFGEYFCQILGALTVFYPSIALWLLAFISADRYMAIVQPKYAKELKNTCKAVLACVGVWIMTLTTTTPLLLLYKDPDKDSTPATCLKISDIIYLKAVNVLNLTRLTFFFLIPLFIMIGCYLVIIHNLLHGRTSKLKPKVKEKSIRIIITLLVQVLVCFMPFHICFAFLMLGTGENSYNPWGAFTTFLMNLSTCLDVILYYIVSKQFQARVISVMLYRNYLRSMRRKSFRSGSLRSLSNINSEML
Experimental: as §1

[3] = target: Human CB2; conditions: ref Frost et al.[29]; read-out: Ki Human CB2 (literature) (converted); cited from earlier work
[4] = target: T3, CB2 receptor (Homo sapiens, UniProt P34972); test: biochemical; format: binding; parameters: expressed in transfected cells; host or cells: CHO cells (membrane preparation); conditions: for Ki: versus 0.1 nM [3H]CP55,940, CHO cell membranes, mean ± SEM of three to five experiments, read-out: Ki ± SEM Human CB2
[5] = target: Human CB1; conditions: ref Blaazer et al. [33]; cited from earlier work
[6] = system: Human CB1; conditions: read-out: EC50 Human CB1 (literature, functional assay) (converted), cited from earlier work
[7] = system: Human CB2; conditions: read-out: EC50 Human CB2 (literature, functional assay) (converted), cited from earlier work
[8] = target: T4, CB1 receptor (Homo sapiens, UniProt P21554); test: cell-based; format: cell-based; parameters: expressed in transfected cells; host or cells: CHO cells; conditions: cAMP accumulation, forskolin 10 µM; test concentration 1 µM or 10 µM; normalized to CP55,940
[9] = target: T3, CB2 receptor; test: cAMP accumulation assay in CHO cells expressing CB2; format: cell-based; parameters: expressed in transfected cells; host or cells: CHO cells; conditions: cAMP accumulation, forskolin 10 µM; test concentration 1 µM or 10 µM; normalized to CP55,940
[10] = target: T4, CB1 receptor; test: biochemical; format: binding; parameters: expressed in transfected cells; host or cells: CHO cells (membrane preparation); conditions: for CB1 selectivity Ki CB2/KiCB1: Table S1, selectivity index from Ki values; for Ki: versus 0.1 nM [3H]CP55,940, CHO cell membranes, mean ± SEM of three to five experiments, read-out: Ki ± SEM Human CB1
[11] = Human GPR55 IC50, β-arrestin assay, antagonist mode
[12] = Table S1, selectivity index from Ki values

T3 sequence (P34972 whole entry): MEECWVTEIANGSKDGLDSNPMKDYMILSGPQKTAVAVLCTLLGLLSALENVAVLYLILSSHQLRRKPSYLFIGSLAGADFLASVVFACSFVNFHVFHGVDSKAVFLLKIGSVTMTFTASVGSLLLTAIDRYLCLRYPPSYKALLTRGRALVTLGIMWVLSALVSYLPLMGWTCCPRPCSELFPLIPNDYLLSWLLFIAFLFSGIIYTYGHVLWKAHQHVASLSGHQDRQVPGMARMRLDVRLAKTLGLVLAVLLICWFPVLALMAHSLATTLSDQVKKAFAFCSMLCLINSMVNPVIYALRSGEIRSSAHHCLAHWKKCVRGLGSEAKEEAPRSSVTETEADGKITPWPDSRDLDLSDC
T1 sequence (Q9Y2T6 whole entry, the tested form may be a part): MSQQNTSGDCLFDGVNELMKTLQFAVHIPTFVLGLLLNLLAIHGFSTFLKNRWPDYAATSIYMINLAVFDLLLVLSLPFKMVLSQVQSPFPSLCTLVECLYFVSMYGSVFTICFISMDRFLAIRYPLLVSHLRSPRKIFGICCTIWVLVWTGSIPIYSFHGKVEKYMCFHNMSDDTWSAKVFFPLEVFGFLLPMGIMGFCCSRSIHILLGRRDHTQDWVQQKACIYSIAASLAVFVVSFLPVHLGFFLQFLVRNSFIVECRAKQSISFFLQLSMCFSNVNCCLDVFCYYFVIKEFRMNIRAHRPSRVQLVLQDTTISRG
T4 sequence (P21554 whole entry): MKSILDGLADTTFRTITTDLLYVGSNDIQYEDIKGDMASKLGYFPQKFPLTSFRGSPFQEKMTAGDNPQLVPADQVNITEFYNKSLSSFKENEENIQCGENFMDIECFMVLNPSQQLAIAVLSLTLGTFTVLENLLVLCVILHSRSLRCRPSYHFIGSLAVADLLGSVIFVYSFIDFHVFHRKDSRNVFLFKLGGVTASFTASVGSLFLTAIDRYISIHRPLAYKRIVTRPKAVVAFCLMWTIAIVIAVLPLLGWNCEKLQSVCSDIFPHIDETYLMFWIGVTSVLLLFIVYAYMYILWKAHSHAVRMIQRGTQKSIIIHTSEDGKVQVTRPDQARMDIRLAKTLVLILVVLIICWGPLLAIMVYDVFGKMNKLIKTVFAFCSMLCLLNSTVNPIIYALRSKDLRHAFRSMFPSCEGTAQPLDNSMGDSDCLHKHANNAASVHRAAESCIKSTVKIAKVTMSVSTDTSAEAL

Structure (SMILES)	EC50 [1]	Human GPR55 % activation [1]	EC50 [2]	IC50 [2]	Human GPR18 % activation [2]	Human GPR18 % inhibition [2]	Ki [4]	IC50 [1, 11]	Human GPR55 % inhibition [1]	EC50 ([6]; ref Banister et al. [28])	EC50 ([7]; ref Banister et al. [28])	CB1 selectivity Ki CB2/KiCB1 [10]	Ki [10]	CB2 selectivity Ki CB1/KiCB2 [4, 12]	other results
CC1(C)C(C(=O)c2cn(CC3CCOCC3)c3ccccc23)C1(C)C [Compound 46, A-834,735]	> 10000 nM	8%	> 10000 nM	> 10000 nM	6%	6%	0.566 ± 0.153 nM	–	–	–	–	–	–	–	IC50 ([1]; Human GPR55 IC50 (extrapolated), Extrapolated values, a full curve could not be determined due to limited solubility): 6880 ± 1510 nM; Ki [3]: 0.21 nM
CCCCCn1cc(C(=O)Nc2ccc3ccccc3c2)c2ccccc21 [non-fluorinated derivative of compound 7, reference compound]	–	–	–	–	–	–	–	–	–	–	–	–	–	–	pKi value at the CB1 receptor [5]: 7.2
CCCCCn1cc(C(=O)Oc2cccc3cccnc23)c2ccccc21 [Compound 24, PB-22]	> 10000 nM	15%	> 10000 nM	> 10000 nM	−18%	26%	0.433 ± 0.106 nM	> 10000 nM	-12%	5.1 nM	2.8 nM	1.4	0.318 ± 0.071 nM	–	efficacy at CB1 receptor (in words) [8]: partial agonist with similar efficacy as Δ^9-THC; efficacy at CB2 receptor (in words) [9]: partial agonist with similar efficacy as Δ^9-THC
CC1(C)C(C(=O)c2cn(CCCCCF)c3ccccc23)C1(C)C [Compound 38, XLR-11]	–	–	–	–	–	–	0.608 ± 0.151 nM	–	–	98 nM	83 nM	–	29.4 ± 11 nM	48.4	–
CCCCCn1cc(C(=O)C23CC4CC(CC(C4)C2)C3)c2ccccc21 [Compound 35, AB001]	> 10000 nM	−14%	> 10000 nM	~10000 nM	−12%	62%	1.72 ± 0.15 nM	~10000 nM	56%	–	–	–	33 ± 7.42 nM	19.2	EC50 ([6]; ref Banister et al. [46]): 35 nM; EC50 ([7]; ref Banister et al. [46]): 45 nM
O=C(Oc1cccc2ccccc12)c1nn(CCCCCF)c2ccccc12 [Compound 23, 5F-SDB-005]	> 10000 nM	21%	> 10000 nM	> 10000 nM	21%	24%	3.41 ± 1.34 nM	> 10000 nM	47%	148 nM	136 nM	1.3	2.58 ± 1.09 nM	–	–
CCCCCn1cc(C(=O)NCc2ccccc2)c2ccccc21 [Compound 12, SDB-006]	> 10000 nM	−5%	> 10000 nM	> 10000 nM	−9%	22%	188 ± 38 nM	> 10000 nM	36%	134 nM	19 nM	3.5	53 ± 1.1 nM	–	–
CCCCCn1nc(C(=O)Oc2cccc3ccccc23)c2ccccc21 [Compound 22, SDB-005]	> 10000 nM	8%	> 10000 nM	> 10000 nM	15%	24%	2.61 ± 1.07 nM	> 10000 nM	23%	116 nM	140 nM	–	3.59 ± 0.89 nM	1.4	–
CC1(C)C(C(=O)c2cn(CCN3CCOCC3)c3ccccc23)C1(C)C [Compound 45, A-796,260]	> 10000 nM	−1%	> 10000 nM	> 10000 nM	20%	−10%	8.02 ± 0.77 nM	–	–	–	–	–	–	–	Ki [3]: 4.4 nM
O=C(NC12CC3CC(CC(C3)C1)C2)c1cn(CCCCCF)c2ccccc12 [Compound 16, STS-135 (5F-APICA)]	> 10000 nM	1%	> 10000 nM	> 10000 nM	−2%	30%	0.794 ± 0.071 nM	3410 ± 470 nM	–	51 nM	13 nM	–	2.51 ± 0.35 nM	3.2	–
CCCCCn1cc(C(=O)NC23CC4CC(CC(C4)C2)C3)c2ccccc21 [Compound 15, APICA]	> 10000 nM	11%	> 10000 nM	> 10000 nM	8%	44%	1.22 ± 0.14 nM	4770 ± 1690 nM	–	128 nM	29 nM	–	6.52 ± 3.73 nM	–	CB2 selectivity Ki CB1/KiCB2 [4]: 5.3
O=C(NCc1ccccc1)c1cn(CCCCCF)c2ccccc12 [Compound 13, 5F-SDB-006]	> 10000 nM	−3%	> 10000 nM	> 10000 nM	13%	−24%	430 ± 73 nM	> 10000 nM	11%	50 nM	123 nM	6.0	71.9 ± 13.5 nM	–	–
